Patent US20220088016A1, “CANCER TREATMENT USING MULTI-TARGETED KINASE INHIBITOR IN COMBINATION OF PROTEIN KINASE BIOMARKERS” (ZHEJIANG CROWNMAB BIOTECH CO. LTD., priority 2019, published 2022)

Key:
Assay in all cases: Kinase profiling
Assay type in all cases: binding
Conditions in all cases: read-out: % Ctrl @ 1000 nM
LATS1 = LATS1 (Homo sapiens, UniProt O95835)
SGK = SGK (Homo sapiens, UniProt O00141)
TESK1 = TESK1 (Homo sapiens, UniProt Q15569)
Chain of TESK1 (Q15569 whole entry): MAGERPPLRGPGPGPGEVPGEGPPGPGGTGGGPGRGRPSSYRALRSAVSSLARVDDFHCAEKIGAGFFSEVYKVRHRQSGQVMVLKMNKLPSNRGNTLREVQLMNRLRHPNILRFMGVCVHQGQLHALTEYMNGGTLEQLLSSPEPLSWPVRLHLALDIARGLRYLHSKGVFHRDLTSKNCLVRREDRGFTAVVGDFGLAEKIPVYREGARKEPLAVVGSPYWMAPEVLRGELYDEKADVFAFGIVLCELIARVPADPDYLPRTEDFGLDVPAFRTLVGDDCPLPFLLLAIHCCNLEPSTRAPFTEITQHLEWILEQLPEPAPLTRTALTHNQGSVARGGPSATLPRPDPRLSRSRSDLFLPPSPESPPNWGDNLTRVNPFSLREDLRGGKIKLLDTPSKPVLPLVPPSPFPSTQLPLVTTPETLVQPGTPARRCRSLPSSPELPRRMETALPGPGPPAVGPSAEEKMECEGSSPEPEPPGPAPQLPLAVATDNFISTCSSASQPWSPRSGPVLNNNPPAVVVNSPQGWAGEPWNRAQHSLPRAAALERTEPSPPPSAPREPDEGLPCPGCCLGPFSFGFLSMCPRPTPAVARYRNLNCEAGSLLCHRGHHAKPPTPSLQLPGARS

Chain of SGK (O00141 whole entry): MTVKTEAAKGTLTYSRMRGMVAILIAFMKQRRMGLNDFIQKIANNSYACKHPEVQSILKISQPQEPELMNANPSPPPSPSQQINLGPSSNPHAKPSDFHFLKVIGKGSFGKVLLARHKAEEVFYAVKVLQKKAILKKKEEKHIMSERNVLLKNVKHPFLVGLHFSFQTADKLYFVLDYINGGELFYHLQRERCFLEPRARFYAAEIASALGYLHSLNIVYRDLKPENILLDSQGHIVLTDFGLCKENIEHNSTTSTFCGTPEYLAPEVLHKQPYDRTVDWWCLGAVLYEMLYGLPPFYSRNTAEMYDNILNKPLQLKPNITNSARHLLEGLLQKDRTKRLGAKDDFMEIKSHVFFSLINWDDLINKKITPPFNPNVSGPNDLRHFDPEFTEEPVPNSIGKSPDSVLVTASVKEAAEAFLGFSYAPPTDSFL
Chain of LATS1 (O95835 whole entry): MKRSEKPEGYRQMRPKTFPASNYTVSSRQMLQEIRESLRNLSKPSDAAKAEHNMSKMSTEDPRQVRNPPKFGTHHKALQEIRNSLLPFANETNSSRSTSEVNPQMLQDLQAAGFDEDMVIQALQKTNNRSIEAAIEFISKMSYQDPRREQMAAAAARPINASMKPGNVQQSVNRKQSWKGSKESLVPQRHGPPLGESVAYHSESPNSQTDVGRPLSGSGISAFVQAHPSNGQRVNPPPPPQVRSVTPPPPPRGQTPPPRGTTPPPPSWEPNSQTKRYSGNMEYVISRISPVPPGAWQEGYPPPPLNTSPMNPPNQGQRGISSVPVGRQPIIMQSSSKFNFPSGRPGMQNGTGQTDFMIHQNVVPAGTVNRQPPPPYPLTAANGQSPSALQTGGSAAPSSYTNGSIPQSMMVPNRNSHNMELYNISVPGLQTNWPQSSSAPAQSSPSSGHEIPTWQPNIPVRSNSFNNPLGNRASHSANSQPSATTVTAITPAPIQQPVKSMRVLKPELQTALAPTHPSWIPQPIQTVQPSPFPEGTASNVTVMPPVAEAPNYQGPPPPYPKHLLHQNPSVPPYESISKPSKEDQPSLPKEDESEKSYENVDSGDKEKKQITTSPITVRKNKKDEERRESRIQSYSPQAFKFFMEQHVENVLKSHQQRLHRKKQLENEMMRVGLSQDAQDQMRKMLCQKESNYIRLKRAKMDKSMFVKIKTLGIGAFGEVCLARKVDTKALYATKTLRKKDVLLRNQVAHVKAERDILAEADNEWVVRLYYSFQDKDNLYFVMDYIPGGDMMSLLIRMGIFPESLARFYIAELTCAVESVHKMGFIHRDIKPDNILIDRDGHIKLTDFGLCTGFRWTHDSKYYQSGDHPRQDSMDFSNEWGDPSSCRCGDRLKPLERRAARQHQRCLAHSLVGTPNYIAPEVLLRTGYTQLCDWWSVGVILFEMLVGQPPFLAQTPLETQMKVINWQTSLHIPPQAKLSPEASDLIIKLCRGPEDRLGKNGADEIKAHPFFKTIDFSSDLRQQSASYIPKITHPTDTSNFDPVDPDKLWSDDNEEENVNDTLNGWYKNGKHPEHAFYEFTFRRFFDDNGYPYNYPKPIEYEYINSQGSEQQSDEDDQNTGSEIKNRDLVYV

SMILES: Cc1cc(Oc2cc(NC(=O)C3CC3)ncn2)ccc1NC(=O)Nc1ccc(Cl)c(C(F)(F)F)c1 [CBT-102]
- remaining activity at 1 µM (LATS1): 80%
- remaining activity at 1 µM (SGK): 100%
- remaining activity at 1 µM (TESK1): 100%
